pIC50: −log10 of the molar value.
Legend:
[1] = system: human erythroleukemia cells HEL; assay: anti-tumor cell proliferation activity (CCK-8), HEL; format: cell-based; conditions: 72 hours incubation
Description: (§1) The compound of the 2-aminopyrimidine skeleton of the above formula I according to the present invention was tested in vitro to inhibit the activity of human erythroleukemia cells HEL and human myeloid monocytic leukemia cells Molm-13. The control compounds Pacritinib and Fedratinib were prepared by our research group.
(§2) After the cells are resuscitated and passaged 2-3 times to stable state, 10 μL of the cell suspension was pipetted to a cell counting plate for counting, and the cell concentration was adjusted to 10×10^4 cells/mL. No cell solution was added to the outermost wells of the 96-well plate, and 100 μL of cell suspension was added to each of the remaining wells. 100 μL of medium was added to wells B2-B7 as a control group, and other wells were added with different concentrations of the compounds to be tested. After 72 hours of incubation in the incubator, 200 μL, of fresh medium was added to well A1 as a blank group, and then 20 µL of CCK-8 solution was added to each well, and the incubation continued for 4 hours. The 96-well plate was shaken at room temperature for 3 minutes, and then the absorbance at 450 nm wavelength was measured with a microplate reader, and the inhibition rate of cell growth was calculated according to the following formula:
(§3) Inhibition rate (%)=[(A control−A addition)/(A control−A blank)]×100
(§4) IC50 is the drug concentration required to inhibit half of the cell growth. According to the results of drug concentration and inhibition rate, GraphPad Prism version 5 software is used to calculate IC50 through the dose-effect curve.

FLT3 = biological target: T1, FLT3 (Homo sapiens, UniProt P36888); assay: in vitro FLT3 kinase activity test, Mobility Shift Assay; format: biochemical; conditions: compound concentration 0.1 μM; read-out: Percentage of inhibition against FLT3 at 0.1 μM
T1 sequence (P36888 27-993): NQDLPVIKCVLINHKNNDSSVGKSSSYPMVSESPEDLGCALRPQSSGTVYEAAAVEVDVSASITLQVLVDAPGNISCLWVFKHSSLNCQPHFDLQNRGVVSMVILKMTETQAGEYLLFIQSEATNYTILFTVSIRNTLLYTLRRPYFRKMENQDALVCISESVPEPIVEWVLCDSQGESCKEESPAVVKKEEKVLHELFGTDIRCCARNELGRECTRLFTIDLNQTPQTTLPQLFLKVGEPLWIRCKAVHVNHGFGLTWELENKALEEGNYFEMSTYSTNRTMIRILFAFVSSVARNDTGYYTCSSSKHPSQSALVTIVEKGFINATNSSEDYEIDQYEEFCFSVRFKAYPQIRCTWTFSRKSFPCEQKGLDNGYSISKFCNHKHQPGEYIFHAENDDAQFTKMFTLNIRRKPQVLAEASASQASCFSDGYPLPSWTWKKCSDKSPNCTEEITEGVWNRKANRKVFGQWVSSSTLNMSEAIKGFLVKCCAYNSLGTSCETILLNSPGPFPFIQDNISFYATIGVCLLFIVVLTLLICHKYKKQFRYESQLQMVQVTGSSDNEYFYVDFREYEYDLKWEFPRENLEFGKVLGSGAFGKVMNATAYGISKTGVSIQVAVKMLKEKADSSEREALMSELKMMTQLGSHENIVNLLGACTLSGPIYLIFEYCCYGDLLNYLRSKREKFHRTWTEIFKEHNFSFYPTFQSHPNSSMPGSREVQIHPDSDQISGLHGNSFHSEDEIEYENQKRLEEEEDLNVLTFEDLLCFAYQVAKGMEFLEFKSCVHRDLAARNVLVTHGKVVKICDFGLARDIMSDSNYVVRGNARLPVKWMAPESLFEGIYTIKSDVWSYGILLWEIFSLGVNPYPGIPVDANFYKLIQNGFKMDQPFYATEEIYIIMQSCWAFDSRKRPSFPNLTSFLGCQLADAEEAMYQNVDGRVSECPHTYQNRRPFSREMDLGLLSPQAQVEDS
Description: (§5) The in vitro JAK2 and FLT3 kinase activity test was performed on the compounds of the 2-aminopyrimidine backbone of the above formula I (concentration 0.1 μM) according to the present invention using Mobility Shift Assay.
(§6) The kinase buffer was composed of 50 mM HEPEs (pH 7.5) and 0.0015% BRIJ-35. The stop buffer contained a mixture of 100 mM HEPES (pH 7.5), 0.015% BRIJ-35, 0.2% coating reagent #3 and 50 mM EDTA. The compound to be tested was diluted with 100% DMSO to 50 times the highest concentration required in the reaction. The dilution of compound to be tested (100 μL) was transferred to the wells of a 96-well plate. […] was added to two wells of the plate as a control group and the plate was marked as the source plate. 10 μL of compound was transferred from the source plate to a new 96-well plate to prepare an intermediate plate. In the intermediate plate, an additional 90 μL of kinase buffer was added to each well. The intermediate plate was shaken for 10 minutes, and then 5 μL of each well of the 96-well intermediate plate was copied to a 384-well plate as an analysis plate. The prepared enzyme solution was added to each well of the 384-well plate, then incubated at room temperature for 10 minutes, and then 10 μL of the prepared peptide solution (FAM-labeled peptide and ATP in kinase-based buffer) was added. The sample was incubated at 28° C. for 1 hours, and then 25 μL of buffer was added. The conversion data from the Caliper program was copied and converted to the inhibition rate.
(§7) Inhibition rate (%)=(max−conversion)/(max−min)×100.

JAK2 = JAK2 (Homo sapiens, UniProt O60674); assay: in vitro JAK2 kinase activity test, Mobility Shift Assay; format: biochemical; conditions: compound concentration 0.1 μM; read-out: Percentage of inhibition against JAK2 at 0.1 μM
Chain of JAK2 (O60674 whole entry): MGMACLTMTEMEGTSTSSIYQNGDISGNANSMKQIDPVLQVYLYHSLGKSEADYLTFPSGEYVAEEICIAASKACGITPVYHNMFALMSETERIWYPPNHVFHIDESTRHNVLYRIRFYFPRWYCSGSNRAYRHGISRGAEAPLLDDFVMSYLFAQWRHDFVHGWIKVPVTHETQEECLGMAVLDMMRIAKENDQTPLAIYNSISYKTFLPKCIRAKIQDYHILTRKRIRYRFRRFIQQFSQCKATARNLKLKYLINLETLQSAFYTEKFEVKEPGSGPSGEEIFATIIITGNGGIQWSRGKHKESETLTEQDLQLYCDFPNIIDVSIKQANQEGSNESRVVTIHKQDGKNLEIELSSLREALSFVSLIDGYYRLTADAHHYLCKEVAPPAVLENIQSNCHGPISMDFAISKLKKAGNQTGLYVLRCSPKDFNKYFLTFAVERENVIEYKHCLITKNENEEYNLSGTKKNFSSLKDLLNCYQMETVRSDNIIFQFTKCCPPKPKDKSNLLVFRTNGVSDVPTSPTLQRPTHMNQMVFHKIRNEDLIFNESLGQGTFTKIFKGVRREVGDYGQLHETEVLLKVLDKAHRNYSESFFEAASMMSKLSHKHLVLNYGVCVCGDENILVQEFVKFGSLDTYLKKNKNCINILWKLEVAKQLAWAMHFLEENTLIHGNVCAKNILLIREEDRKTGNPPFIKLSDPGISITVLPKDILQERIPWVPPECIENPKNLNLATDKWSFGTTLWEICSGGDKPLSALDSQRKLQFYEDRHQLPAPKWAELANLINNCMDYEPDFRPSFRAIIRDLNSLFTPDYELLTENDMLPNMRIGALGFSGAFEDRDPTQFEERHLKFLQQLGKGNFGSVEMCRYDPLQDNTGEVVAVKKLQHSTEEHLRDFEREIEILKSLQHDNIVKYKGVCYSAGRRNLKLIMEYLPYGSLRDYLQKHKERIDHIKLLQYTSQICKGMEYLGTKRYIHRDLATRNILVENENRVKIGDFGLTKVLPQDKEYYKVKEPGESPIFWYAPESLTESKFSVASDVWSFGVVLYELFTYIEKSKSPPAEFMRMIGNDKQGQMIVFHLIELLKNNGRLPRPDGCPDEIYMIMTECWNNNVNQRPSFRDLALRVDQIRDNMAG
Description: as §5, with “Assay. The control compounds Pacritinib and Fedratinib were prepared by our research group.” for “Assay.”
as §6, §7

[2] = system: human myeloid monocytic leukemia cells Molm-13; assay: anti-tumor cell proliferation activity (CCK-8), Molm-13; format: cell-based; conditions: Molm-13 cells, 72 hours incubation
Description: as §1, §2, §3, §4

pIC50 [1]	inhibition at 0.1 µM (FLT3) [%]	inhibition at 0.1 µM (JAK2) [%]	pIC50 [2]	SMILES
5.37	72.3	76.7	7.11	CC(=O)c1ccc(NC(=O)N2CCN(c3ccnc(Nc4ccc(N5CCOCC5)cc4)n3)CC2)cc1 [Example 6, N-(4-acetylphenyl)-4-(2-{[4-(morpholin-4-yl)phenyl]amino}pyrimidin-4-yl)piperazine-1-carboxamide]
6.05	95.2	88.5	7.14	Cc1cnc(Nc2ccc(N3CCOCC3)cc2)nc1N1CCN(C(=O)Nc2ccc(C#N)cc2)CC1 [Example 20, N-(4-cyanophenyl)-4-(5-methyl-2-{[4-(morpholin-4-yl)phenyl]amino}pyrimidin-4-yl)piperazine-1-carboxamide]
6.10	99.1	81.8	7.38	CC(=O)c1ccc(NC(=O)N2CCN(c3nc(Nc4ccc(N5CCOCC5)cc4)ncc3C)CC2)cc1 [Example 22, N-(4-acetylphenyl)-4-(5-methyl-2-{[4-(morpholin-4-yl)phenyl]amino}pyrimidin-4-yl)piperazine-1-carboxamide]
5.34	82.5	74.6	7.08	CC(=O)c1ccc(NC(=O)N2CCN(c3nc(Nc4ccc(N5CCOCC5)cc4)ncc3C(F)(F)F)CC2)cc1 [Example 26, N-(4-acetylphenyl)-4-(5-trifluoromethyl-2-{[4-(morpholin-4-yl)phenyl]amino}pyrimidin-4-yl)piperazine-1-carboxamide]
5.17	78.6	80.5	6.46	CC(=O)c1ccc(NC(=O)N2CCC(Nc3nc(Nc4ccc(N5CCOCC5)cc4)ncc3C)CC2)cc1 [Example 32, N-(4-acetylphenyl)-4-[(5-methyl-2-{[4-(morpholin-4-yl)phenyl]amino}pyrimidin-4-yl)amino]piperidine-1-carboxamide]
5.77	97	74.3	7.21	CC(=O)c1ccc(NC(=O)C2CCN(c3nc(Nc4ccc(N5CCOCC5)cc4)ncc3C)CC2)cc1 [Example 33, N-(4-acetylphenyl)-1-(5-methyl-2-{[4-(morpholin-4-yl)phenyl]amino}pyrimidin-4-yl)piperidine-4-carboxamide]
6.05	88.7	95.2	7.17	Cc1cnc(Nc2ccc(OCCN3CCCC3)cc2)nc1Nc1cccc(S(=O)(=O)NC(C)(C)C)c1 [Fedratinib, reference compound]
5.96	–	92	7.64	C1=C/COCc2cc(ccc2OCCN2CCCC2)Nc2nccc(n2)-c2cccc(c2)COC/1 [Pacritinib, reference compound]

Source: patent publication US20220259196A1, “2-AMINOPYRIMIDINE COMPOUND AND USES THEREOF” (Shenyang Pharmaceutical University, priority 2019, published 2022)
